According to the METLIN SMRT retention time set (Domingo-Almenara et al. 2019):

Assay: gradient 5% acetonitrile 3 min, to 50% in 2 min, to 85% in 15 min, held 3 min, 100 µL/min
Conditions: column: Zorbax Extend-C18 2.1 x 50 mm; eluents: water / acetonitrile, 0.1% formic acid
How it was run: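 Retention time was recorded from adduct peaks, which were picked computationally and each inspected manually. Pure standards ran in mixtures of ~100 molecules on HPLC coupled to a quadrupole time-of-flight mass spectrometer, in positive and negative ionization mode, through a Zorbax Extend-C18 column (2.1 × 50 mm, 1.8 μm) at 100 μL/min. Eluents were water and acetonitrile, each with 0.1% formic acid.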

RP-LC retention time [s]	SMILES
755	Cc1cc2c(cc1S(=O)(=O)N1CCCC1C(=O)NCc1ccc3c(c1)OCO3)OC(C)C(=O)N2 (centres undefined)
1140	Cc1cccc(N2CCN(S(=O)(=O)c3ccc(-c4nnc(C5CCC5)o4)o3)CC2)c1
924	CCc1cc(C2CCCN2C(=O)Nc2cccc(Cl)c2)on1 (centres undefined)
810	Cc1cccc(CN2CCc3nc(N4CCN(c5ccccc5F)CC4)ncc3C2)c1
592	Cc1cc(C(N)=O)c2cc(Cl)ccc2n1
1200	CC(NC(=O)c1ccco1)c1nc(-c2ccc(-c3csc(-c4ccccc4)n3)cc2)no1 (centres undefined)
728	O=c1[nH]c2ccc(NCc3cccc(Cl)c3Cl)cc2[nH]1
590	CN(C)c1ccc2c(c1)CN(C(=O)C1CCC1)CCO2
840	CC1(C(=O)NCc2ccccc2)CCCN(C(=O)NCCc2ccccc2)C1 (centres undefined)
863	CCOc1cccc(-c2noc(Cn3ccn(-c4ccccc4OC)c(=O)c3=O)n2)c1
907	Cc1cc(C)n(-c2nc(C)c(C)c(=O)n2CC(=O)N2CCCc3ccccc32)n1
967	Cc1cc(-c2nnc3sc(COc4ccc(C(C)(C)C)cc4)nn23)n[nH]1
582	NC(=O)C1CCN(C(=O)CN2CCN(c3ccccc3)CC2)CC1
814	Cc1cc(N2C=C(C(=O)N3CCOCC3)S(=O)(=O)c3ccc(F)cc32)ccc1F
763	CC(=O)c1cccc(NC(=O)Cn2c(=O)n(-c3ccccc3)c(=O)c3c2cc(C)n3C)c1
674	CCn1ccc2cc(S(=O)(=O)N3CCC(C(=O)N4CCN(c5ccccn5)CC4)CC3)ccc21
965	COc1ccc(F)cc1S(=O)(=O)N1CCN(c2c(C)nn(-c3ccccc3)c2C)CC1
589	Cc1nc(NCCCn2ccnc2)nc(Nc2ccccc2)c1[N+](=O)[O-]
697	CCOC(=O)C1CCC(CNC(=O)N2CCN(Cc3nc4ccc(Cl)cc4o3)CC2)CC1 (centres undefined)
625	CCn1cc(S(=O)(=O)N2C[C@@H](COC)[C@H](c3ccccn3)C2)cn1
816	CN1CCCCCCN(C(=O)c2cccn2C)[C@H]2CCC[C@H]2C1=O
655	Cc1nc2c(OCc3ccccc3)cccn2c1CC#N

RP-LC retention time [s]	SMILES
1150	CCc1cc(C(=O)Nc2cc(C)ccc2F)nc2ccnn12
709	CCNC(=O)c1ccc2c(c1)CCCN2S(=O)(=O)CC
1080	COc1c(/C=N/NC(N)=O)c(OC)c(OC)c2c1CCO2
1270	Cc1cc(C)c(S(=O)(=O)N2CCCC2c2nc(-c3ccc(F)cc3)no2)c(C)c1 (centres undefined)
732	O=C(Cn1cnc2nc3c(cc2c1=O)CCCC3)Nc1ccccc1Br
1240	Cc1ccc(-c2noc(C3CCCN3S(=O)(=O)c3cc(C)ccc3C)n2)cc1 (centres undefined)
771	Cc1cccc(-c2nnc(C)c(N3CCC(C)CC3)n2)c1
706	CN(C)C(=O)c1cccc2c1CCN2C(=O)c1ccccc1
577	CC(C)Oc1ccc(CN2CCC3(CC2)CN(C)CC3c2nnc(C(C)C)o2)cc1 (centres undefined)
1180	CNC(=O)c1c(NC(=O)c2ccc(Cl)cc2)sc2c1CCC2
1060	COC(=O)c1ccc2c(=O)n(-c3ccc(Cl)cc3)c(N3CCCC3)nc2c1
919	COc1ccc(OC)c(CCNC(=O)c2c(N3CCCC3=O)c3cc(F)ccc3n2C)c1
942	CCOc1ccc(NC(=O)N(C)CCc2noc(C3CCCCC3)n2)cc1
717	O=C(COc1ccc(F)c(F)c1)Nc1cnc(-c2cccnc2)nc1
873	COc1ccc(C2Cn3nnc(-c4nc(-c5ccncc5)no4)c3CO2)cc1 (centres undefined)
1080	CSc1cccc(NC(=O)N2CCCC2c2nc(-c3cccc(C)c3)no2)c1 (centres undefined)
717	Nc1cc(C2CCN(C(=O)Nc3ccc(Cl)cc3F)CC2)no1
543	CN1CCN(CCNC(=O)C2CCc3sc(C(=O)N4CCOCC4)cc3C2)CC1 (centres undefined)
700	Cc1ccc(C)c(CS(=O)(=O)N2CCC(CN3CCCCCC3)CC2)c1
1190	Cc1ccc(CNS(=O)(=O)c2cc(-c3nc(C(C)(C)C)cs3)cs2)o1
738	CCN1C(=O)c2cccnc2Sc2cc(NC(=O)c3ccn(CC)n3)ccc21
920	CCN(C(=O)Cn1nc(S(=O)(=O)c2ccc(Cl)cc2)ccc1=O)c1ccccc1

RP-LC retention time [s]	SMILES
834	Cc1ccc2c(c1)C(c1ccccc1)N(C(=O)c1ccc([N+](=O)[O-])cc1)CC(=O)N2 (centres undefined)
908	O=C(NCCc1csc(-c2ccc(F)cc2)n1)c1ccc2c(c1)OCO2
1210	CC(Oc1cc(O)c2c(=O)cc(-c3ccccc3)oc2c1)C(=O)c1ccccc1 (centres undefined)
666	Cc1ccsc1C(=O)Nc1ccc(-c2nnc3n2CCCC3)cc1
894	CCc1ccc(C(=O)N2CCCN(C3=NS(=O)(=O)C(c4ccccc4)=C3C)CC2)cc1
869	Cc1cccc(C2CCCN2C(=O)c2cnn3cc(Br)cnc23)c1 (centres undefined)
838	CCC(=O)N1CCc2cc(CNS(=O)(=O)c3ccc(F)cc3)ccc21
552	COc1ccccc1CNC1CCN(c2ccc(C(=O)NC3CC3)cn2)C1 (centres undefined)
564	CCC(C)(C(=O)NC1CCCCC1)N(Cc1ccco1)C(=O)c1ccc2c(c1)OCO2 (centres undefined)
744	Cc1noc(Cn2cnc3c4ccccc4n(CC(=O)NC4CCCC4)c3c2=O)n1
983	Cc1ccc(NC(=O)C2CCCN(S(=O)(=O)c3cc(-c4noc(C)n4)cs3)C2)c(C)c1 (centres undefined)
682	CC(C)NC(=O)Cn1ccn2nc(-c3ccc(F)cc3)c(CO)c2c1=O
878	CSc1ccc(-c2nc3ccc(C)cn3c2NC2CCCCC2)cc1
642	COCc1nc2ccccc2n1CC(=O)NC1CCCCC1
1120	Cc1ccc(C)c(CNC(=O)c2ccc(-c3nc4cccnc4n3C3CCCCC3)cc2)c1
852	O=C(Nc1ccc2c(c1)N(S(=O)(=O)c1ccc(F)cc1)CCC2)C1CC1
911	Cc1ccc(CCNC(=O)C2CCCN(C(=O)c3cc4sccc4n3C)C2)cc1 (centres undefined)
754	COc1ccc(CNC(=O)C2CCCN(c3ncnc4c3oc3ccccc34)C2)c(OC)c1 (centres undefined)
744	CCOC(=O)c1ccccc1NC(=O)Cn1cnc2nc(-c3cccnc3)ncc2c1=O
759	Cc1oc(C2CCN(S(=O)(=O)Cc3ccccc3)CC2)nc1C(=O)N1CCOCC1
845	COC(=O)c1cc2n(n1)CC(C)(C(=O)NC1CCCC1)N(c1ccc(F)cc1C)C2=O (centres undefined)
891	COc1ccc(NC(=O)c2cn(-c3cc(N4CCCC4)ncn3)cn2)c(OC)c1

RP-LC retention time [s]	SMILES
747	CCOc1ccccc1-c1nc(-c2ccc3ncn(C)c3c2)no1
1220	CCOc1cccc(-c2noc(Cn3ccn4nc(-c5ccc(C)c(C)c5)cc4c3=O)n2)c1
750	Cn1cc(C(=O)N2CCCC2Cc2noc(C3CCCC3)n2)cn1 (centres undefined)
761	COc1ccc(NC(=O)NC2CCN(c3ccccc3)C2=O)c(OC)c1 (centres undefined)
911	COc1cccc(-c2noc(Cn3c(=O)n(Cc4ccccc4)c(=O)c4sccc43)n2)c1
620	CCCN(C)C[C@@H]1CC(F)(F)CN1C1CCN(S(=O)(=O)c2ccccc2C)CC1
657	CCN(CC)CCNC(=O)C1CCN(c2nccnc2Sc2ccccc2)CC1
867	CN1C(=O)Cc2cc(S(=O)(=O)NCc3ccc4c(c3)CCN4C(=O)c3ccc(Cl)cc3)ccc21
1010	CCc1nc(-c2csc(S(=O)(=O)N3CCCC(C(=O)Nc4ccccc4C)C3)c2)no1 (centres undefined)
533	O=C(CCNc1cnc2cnccn12)NCc1ccc(N2CCCCC2)cc1
737	Cc1noc(-c2ccc(OC3CN(C(=O)Nc4ccccc4)C3)cc2)n1
1110	Cc1ccc(C(C)C)c(OCC(=O)N(Cc2ccc(C)o2)C2CCS(=O)(=O)C2)c1 (centres undefined)
726	O=C(NC1CCN(c2cc(-c3cccs3)[nH]n2)C1)c1ccc(F)cc1Cl (centres undefined)
884	CCOc1ccccc1NC(=O)COc1nc(CC)nc2ccccc12
686	CCOc1ccc(NS(=O)(=O)c2cc(-c3[nH]ncc3C(=O)N(C)C)oc2C)cc1
833	CCOC(=O)CNc1nc(-c2cccc([N+](=O)[O-])c2)nc2ccccc12
850	Cc1cc2c(=O)n(CC(=O)Nc3cccc(Br)c3)ccc2s1
1080	CCc1ccc(-n2cc(C(=O)OCC(=O)OC)c3ccccc3c2=O)cc1
938	CCCS(=O)(=O)N1CC(=O)N(c2ccc(F)cc2)C(C)(C(=O)NC2CCCCCC2)C1 (centres undefined)
886	COc1ccc(-c2noc(C3CC(=O)N(c4ccc5c(c4)OCO5)C3)n2)cc1OC (centres undefined)
589	Cc1ccc2ccc3ccc(C)nc3c2n1
680	CCn1nccc1-c1nc(C2CC(=O)N(c3ccc(C)cc3)C2)no1 (centres undefined)

SMILES	RP-LC retention time [s]
COC[C@@H](NC(C)=O)C(=O)NCc1ccccc1	641
